One assay deals with EGFR L858R (Homo sapiens (Human), UniProt P00533, L858R). Description: Biochemical EGFR inhibition assay, EGFR L858R. As to conditions: Caliper mobility shift; 1.0 mM ATP or ATP Km; read-out: Enz EGFR_L858R IC50. The protocol:
(§1) Reactions proceeded until between 10% to 20% total peptides were phosphorylated at room temperature (25° C.) and were terminated with 35 mM 2,2′,2″,2″-(ethane-1,2-diyldinitrilo)tetraacetic acid (EDTA). Product was detected using the Caliper mobility shift detection method where the phosphorylated peptide (product) and substrate were electrophoretically separated and measured. Percent activity was plotted against log concentration of compound and points to generate an apparent IC50.

A further assay has as its target EGFR (d746-750) (Homo sapiens (Human), UniProt P00533, DEL746-750). As to the kind of experiment: Biochemical EGFR inhibition assay, EGFR (d746-750). The settings on record: Caliper mobility shift; 1.0 mM ATP or ATP Km; read-out: Enz EGFR_Exon19-del746-750 IC50. As to the method:
as §1

Assay [1] deals with pEGFR (Tyr1068) in PC-9 cells (Ex19Del) (Homo sapiens (Human), UniProt P00533, DEL746-750). As to the kind of experiment: PC-9 pEGFR AlphaLISA assay. In kind it is cell-based. As to conditions: 4 hours incubation, p-EGFR (Tyr1068) AlphaLISA, read-out: Ext pEGFR_PC-9 Ex19Del IC50. The protocol: PC-9/A431 pEGFR AlphaLISA Assays
Inhibitory effects of compounds were evaluated in cellular assays that measure level of intracellular phosphorylation of EGFR in PC-9 (ECACC, #90071810, Milipore/Sigma) and A431 cell lines (ATCC, CRL-1555) using AlphaLISA sureFire ultra p-EGFR (Tyr1068) assay kit (PerkinElmer, ALSU-PEGFR-A50K). PC-9 cells were seeded at 3.125×10^5 cells/ml in 40 μL phenol-free DMEM supplemented with 10% FBS per well of a 384 well plate (Corning, 3764), while A431 were seeded at 3.125×10^5 cells/ml in 40 μL in phenol-free DMEM with 0.5% FBS. Cells were allowed to adhere overnight at 37° C./5% CO2. On the next day, compounds were transferred at 4-fold, 10-point serial dilution from compound source plate to cell plates using liquid handler Echo550 and were incubated at 37° C./5% CO2 for 4 hours. A431 cells were stimulated prior harvesting for 10 min with EGF at final concentration of 30 ng/ml in the incubator. Medium was removed from the plates and cells were lysed with 10 μL of 1× AlphaLISA lysis buffer (supplemented with 1× protease/phosphatase inhibitor cocktail) followed by shaking at 600 rpm for 30 minutes at room temperature. Lysates were transferred to Optiplate (Apricot designs) and 5 μl of 1× acceptor bead mix (prepared just before use) was added to each well followed by incubation at room temperature for 1.5-2 h in dark. Then 5 μL of freshly-made donor bead mix is added to each well under subdued lighting or green filters, was mixed well on the shaker and the plate was sealed and left for an overnight incubation at room temperature in dark. On the next day, the plate was read the Envision using standard AlphaLisa settings. Percent of pEGFR inhibition was plotted against log concentration of compounds to generate IC50 values.
Background: In Alpha technology, singlet oxygen from a donor bead excites a nearby acceptor bead.

EGFR L858R, sequence (P00533 25-1210 L858R): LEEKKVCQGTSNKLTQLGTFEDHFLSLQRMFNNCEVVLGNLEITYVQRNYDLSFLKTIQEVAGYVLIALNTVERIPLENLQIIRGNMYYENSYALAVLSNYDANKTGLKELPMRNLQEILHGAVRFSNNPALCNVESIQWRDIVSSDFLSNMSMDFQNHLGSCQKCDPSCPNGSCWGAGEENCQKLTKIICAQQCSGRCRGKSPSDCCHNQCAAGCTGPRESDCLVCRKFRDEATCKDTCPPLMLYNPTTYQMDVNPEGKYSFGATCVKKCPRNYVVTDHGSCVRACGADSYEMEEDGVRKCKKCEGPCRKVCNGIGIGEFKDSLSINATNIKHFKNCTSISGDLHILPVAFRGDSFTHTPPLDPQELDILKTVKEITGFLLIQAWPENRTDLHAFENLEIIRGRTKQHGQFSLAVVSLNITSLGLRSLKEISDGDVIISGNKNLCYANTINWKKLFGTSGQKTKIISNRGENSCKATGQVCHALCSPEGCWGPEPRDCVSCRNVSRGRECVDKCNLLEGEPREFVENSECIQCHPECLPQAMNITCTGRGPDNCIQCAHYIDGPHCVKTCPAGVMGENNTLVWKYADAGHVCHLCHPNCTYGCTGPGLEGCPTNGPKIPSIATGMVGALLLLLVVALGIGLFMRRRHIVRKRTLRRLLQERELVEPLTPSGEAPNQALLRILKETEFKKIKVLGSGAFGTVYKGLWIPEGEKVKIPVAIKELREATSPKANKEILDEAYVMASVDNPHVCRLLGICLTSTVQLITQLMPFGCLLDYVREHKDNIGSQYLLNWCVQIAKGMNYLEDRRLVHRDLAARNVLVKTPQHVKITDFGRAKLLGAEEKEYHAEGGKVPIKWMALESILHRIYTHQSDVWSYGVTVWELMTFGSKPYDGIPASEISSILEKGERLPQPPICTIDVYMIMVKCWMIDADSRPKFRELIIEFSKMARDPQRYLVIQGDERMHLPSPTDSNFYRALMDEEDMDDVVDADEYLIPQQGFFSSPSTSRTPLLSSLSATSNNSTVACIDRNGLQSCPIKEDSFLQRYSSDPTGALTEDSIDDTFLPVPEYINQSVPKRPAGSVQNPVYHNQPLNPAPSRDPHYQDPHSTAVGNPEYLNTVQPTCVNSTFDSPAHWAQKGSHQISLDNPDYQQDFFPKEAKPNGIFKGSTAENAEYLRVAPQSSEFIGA
pEGFR (Tyr1068) in PC-9 cells (Ex19Del), sequence (P00533 other isoform, or with tags, fused parts or gaps del 746-750): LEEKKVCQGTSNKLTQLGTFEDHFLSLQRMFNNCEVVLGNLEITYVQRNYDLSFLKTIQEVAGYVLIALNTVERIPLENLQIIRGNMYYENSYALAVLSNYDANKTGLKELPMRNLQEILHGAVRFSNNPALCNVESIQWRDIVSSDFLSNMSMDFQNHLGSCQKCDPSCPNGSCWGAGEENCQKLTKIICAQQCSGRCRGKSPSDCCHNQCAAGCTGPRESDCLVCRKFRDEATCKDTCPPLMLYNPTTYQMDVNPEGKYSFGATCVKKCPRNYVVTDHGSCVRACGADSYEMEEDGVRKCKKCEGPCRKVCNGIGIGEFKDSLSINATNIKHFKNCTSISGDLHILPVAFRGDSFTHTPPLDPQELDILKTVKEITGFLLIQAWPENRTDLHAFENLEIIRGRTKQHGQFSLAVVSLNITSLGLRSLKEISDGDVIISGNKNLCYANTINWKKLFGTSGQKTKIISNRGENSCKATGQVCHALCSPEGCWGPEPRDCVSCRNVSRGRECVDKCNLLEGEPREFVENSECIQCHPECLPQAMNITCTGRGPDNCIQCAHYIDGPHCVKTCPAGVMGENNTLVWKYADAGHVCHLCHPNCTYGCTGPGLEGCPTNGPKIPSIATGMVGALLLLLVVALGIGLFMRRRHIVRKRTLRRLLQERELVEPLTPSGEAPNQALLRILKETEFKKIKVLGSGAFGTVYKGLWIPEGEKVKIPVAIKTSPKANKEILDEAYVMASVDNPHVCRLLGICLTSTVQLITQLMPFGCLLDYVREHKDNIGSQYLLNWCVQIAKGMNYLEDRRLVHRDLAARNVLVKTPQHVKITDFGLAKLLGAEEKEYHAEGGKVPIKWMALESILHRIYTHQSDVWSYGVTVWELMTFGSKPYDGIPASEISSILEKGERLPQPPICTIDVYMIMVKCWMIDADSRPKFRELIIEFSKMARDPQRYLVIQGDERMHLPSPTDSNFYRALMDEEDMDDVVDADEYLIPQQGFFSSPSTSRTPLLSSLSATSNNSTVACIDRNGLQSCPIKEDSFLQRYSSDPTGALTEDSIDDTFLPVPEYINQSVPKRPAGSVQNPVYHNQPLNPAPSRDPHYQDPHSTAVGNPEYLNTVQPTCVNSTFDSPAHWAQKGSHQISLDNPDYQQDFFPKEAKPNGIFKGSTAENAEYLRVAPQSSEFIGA
EGFR (d746-750), sequence (P00533 other isoform, or with tags, fused parts or gaps del 1-694/del 746-750 limits assumed): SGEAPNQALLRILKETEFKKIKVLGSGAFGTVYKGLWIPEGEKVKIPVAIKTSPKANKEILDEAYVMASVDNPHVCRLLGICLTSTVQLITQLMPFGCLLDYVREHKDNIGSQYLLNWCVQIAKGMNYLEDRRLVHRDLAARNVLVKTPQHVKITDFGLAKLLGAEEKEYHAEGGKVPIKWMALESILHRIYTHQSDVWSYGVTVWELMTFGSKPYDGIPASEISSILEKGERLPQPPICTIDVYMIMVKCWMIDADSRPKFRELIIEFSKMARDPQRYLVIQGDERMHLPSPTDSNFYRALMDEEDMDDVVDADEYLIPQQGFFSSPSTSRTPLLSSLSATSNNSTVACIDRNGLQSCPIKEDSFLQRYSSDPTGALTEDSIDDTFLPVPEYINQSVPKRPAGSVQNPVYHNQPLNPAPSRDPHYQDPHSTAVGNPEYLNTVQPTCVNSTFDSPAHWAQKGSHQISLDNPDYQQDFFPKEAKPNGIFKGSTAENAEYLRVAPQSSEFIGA

By IC50 is commonly meant the concentration that inhibits the measured activity by half. `CN(C)C12CC(C(=O)Nc3nc4c(-c5cn(C)nc5-c5ccc(F)cc5)ncnc4cc3OC3CC3)(C1)C2` [Example 461, N-{7-cyclopropoxy-4-[3-(4-fluorophenyl)-1-methyl-1H-pyrazol-4-yl]pyrido[3,2-d]pyrimidin-6-yl}-3-(dimethylamino) bicyclo[1.1.1]pentane-1-carboxamide]: the IC50 at EGFR L858R is 12.7 nM; at EGFR (d746-750) it was 2.9 nM; in assay [1], 7.2 nM.
For `CCOc1cc2ncnc(-c3cn(C)nc3-c3ccccc3)c2cc1N1CCN(C)CC1` [Example 162, 7-ethoxy-4-(1-methyl-3-phenyl-1H-pyrazol-4-yl)-6-(4-methylpiperazin-1-yl)quinazoline], the results for the IC50 (at EGFR L858R; at EGFR (d746-750); in assay [1]) were 7 nM, 2.6 nM and 6 nM, respectively.
`COc1cc2ncnc(-c3cn(CCO)nc3-c3ccccc3)c2nc1NC(=O)c1cnn(C(F)(F)F)c1` [Example 415, N-(4-(1-(2-hydroxyethyl)-3-phenyl-1H-pyrazol-4-yl)-7-methoxypyrido[3,2-d]pyrimidin-6-yl)-1-(trifluoromethyl)-1H-pyrazole-4-carboxamide]: the IC50 worked out at 3 nM on EGFR L858R, 1.5 nM on EGFR (d746-750) and 7.8 nM in assay [1].
As to `C[C@H](O)c1cc2c(-c3cn(CC(F)F)nc3-c3ccccc3)ncnc2cc1-c1cnn(C)c1` (single isomer, unassigned) [Example 446, (S)-1-(4-(1-(2,2-difluoroethyl)-3-phenyl-1H-pyrazol-4-yl)-7-(1-methyl-1H-pyrazol-4-yl)quinazolin-6-yl)ethan-1-ol or (R)-1-(4-(1-(2,2-difluoroethyl)-3-phenyl-1H-pyrazol-4-yl)-7-(1-methyl-1H-pyrazol-4-yl)quinazolin-6-yl)ethan-1-ol], the IC50 was found to be 0.9 nM on EGFR L858R, 0.6 nM at EGFR (d746-750) and 0.7 nM in assay [1].
Regarding `COc1cc2ncnc(-c3cn(C)nc3-c3ccccc3)c2cc1NC(=O)c1cccc(F)c1Cl` [Example 199, 2-chloro-3-fluoro-N-(7-methoxy-4-(1-methyl-3-phenyl-1H-pyrazol-4-yl)quinazolin-6-yl)benzamide], the IC50 on EGFR L858R stood at 1.6 nM; on EGFR (d746-750) it was 1.1 nM; in assay [1], 1.9 nM.
For the compound `Cc1nn(C)c(-c2ccccc2)c1-c1ncnc2cc(-c3cnn(C)c3)ccc12` [Example 481, 4-(1,3-dimethyl-5-phenyl-1H-pyrazol-4-yl)-7-(1-methyl-1H-pyrazol-4-yl)quinazoline], the IC50 on EGFR L858R was 70.5 nM; at EGFR (d746-750), 78 nM; in assay [1], 953 nM.
`CCn1cc(-c2ncnc3cc(OC)c(NC(=O)C45CC(C4)C5)nc23)c(-c2ccccc2)n1` [Example 315, N-(4-(1-ethyl-3-phenyl-1H-pyrazol-4-yl)-7-methoxypyrido[3,2-d]pyrimidin-6-yl)bicyclo[1.1.1]pentane-1-carboxamide]: the values for the IC50 (on EGFR L858R; on EGFR (d746-750); in assay [1]) were 1.7 nM, 1.1 nM and 0.6 nM, respectively.
Consider `COc1cc2ncnc(-c3cn(C)nc3-c3ccccc3F)c2cc1OC(=O)N1CCOC[C@@H]1C` [Example 74, 4-(3-(2-fluorophenyl)-1-methyl-1H-pyrazol-4-yl)-7-methoxyquinazolin-6-yl (S)-3-methylmorpholine-4-carboxylate], for which the IC50 worked out at 829 nM on EGFR L858R, 662 nM on EGFR (d746-750) and 4.5 nM in assay [1].
As for `CCC(=O)Nc1cc2c(-c3cnn(C4COC4)c3-c3ccccc3)ncnc2cc1OC` [Example 499], the IC50 turned out to be 17 nM on EGFR L858R, 33 nM at EGFR (d746-750) and 495 nM in assay [1].
On the same counts, the results for `COc1cc2ncnc(-c3c[nH]nc3-c3ccccc3)c2cc1[C@@H]1CCCCO1` (single isomer, unassigned) [Example 132, (S)-7-methoxy-4-(3-phenyl-1H-pyrazol-4-yl)-6-(tetrahydro-2H-pyran-2-yl)quinazoline or (R)-7-methoxy-4-(3-phenyl-1H-pyrazol-4-yl)-6-(tetrahydro-2H-pyran-2-yl)quinazoline] are 1.4 nM, 0.9 nM and 0.6 nM.
On the same counts, the results for `COc1cc2ncnc(-c3cn(C)nc3-c3ccccc3)c2cc1NC(=O)N1CCOC(C)(C)C1` [Example 184, N-[7-methoxy-4-(1-methyl-3-phenyl-1H-pyrazol-4-yl)quinazolin-6-yl]-2,2-dimethylmorpholine-4-carboxamide] are 3.5 nM, 1.8 nM and 7.9 nM.
On the same counts, the results for `CN(C)C12CC(C(=O)Nc3nc4c(-c5cn(C)nc5-c5ccccc5F)ncnc4cc3OC3CC3)(C1)C2` [Example 469, N-{7-cyclopropoxy-4-[3-(2-fluorophenyl)-1-methyl-1H-pyrazol-4-yl]pyrido[3,2-d]pyrimidin-6-yl}-3-(dimethylamino) bicyclo[1.1.1]pentane-1-carboxamide] are 11.1 nM, 2.4 nM and 2.7 nM.
Consider `COc1cc2ncnc(-c3cn(C)nc3-c3ccccc3)c2cc1O[C@@H]1CCOC1` [Example 12, (R)-7-methoxy-4-(1-methyl-3-phenyl-1H-pyrazol-4-yl)-6-((tetrahydrofuran-3-yl)oxy)quinazoline], for which the IC50 on EGFR L858R worked out at 2.8 nM; on EGFR (d746-750), 1.3 nM; in assay [1], 5.6 nM.
Regarding `Cn1cc(-c2ccc3c(-c4cnn(C)c4-c4ccccc4)ncnc3c2)cn1` [Example 497], the IC50 on EGFR L858R is 1.4 nM; on EGFR (d746-750), 1.8 nM; in assay [1], 38.6 nM.
On the same counts, the results for `COc1cc2ncnc(-c3cn(C)nc3-c3ccccc3)c2cc1NC(=O)[C@]12COC[C@H]1C2` (single isomer, unassigned) [Example 260, (1S,5S)—N-(7-methoxy-4-(1-methyl-3-phenyl-1H-pyrazol-4-yl)quinazolin-6-yl)-5-methyl-3-oxabicyclo[3.1.0]hexane-1-carboxamide or (1R,5R)—N-(7-methoxy-4-(1-methyl-3-phenyl-1H-pyrazol-4-yl)quinazolin-6-yl)-3-oxabicyclo[3.1.0]hexane-1-carboxamide] are 6.8 nM, 1.2 nM and 3.2 nM.
As to `CCOc1cc2ncnc(-c3cn(C(C)C)nc3-c3ccccc3)c2cc1[C@H](C)O` (single isomer, unassigned) [Example 110, (S)-1-(7-ethoxy-4-(1-isopropyl-3-phenyl-1H-pyrazol-4-yl)quinazolin-6-yl)ethan-1-ol or (R)-1-(7-ethoxy-4-(1-isopropyl-3-phenyl-1H-pyrazol-4-yl)quinazolin-6-yl)ethan-1-ol], the IC50 at EGFR L858R came to 1.8 nM; on EGFR (d746-750) it was 1.4 nM; in assay [1] it was 2.5 nM.
For `CCOc1cc2ncnc(-c3cn(C)nc3-c3ccccc3)c2cc1OC1CCN(C)CC1` [Example 9, 7-ethoxy-4-(1-methyl-3-phenyl-1H-pyrazol-4-yl)-6-((1-methylpiperidin-4-yl)oxy)quinazoline], the IC50 on EGFR L858R stood at 13.1 nM; at EGFR (d746-750), 6.4 nM; in assay [1], 9.8 nM.
On the same counts, the results for `COc1cc2ncnc(-c3cn(CC(F)F)nc3-c3ccccc3)c2cc1NC(=O)c1ccc(C2CC2)nc1` [Example 333, 6-cyclopropyl-N-(4-(1-(2,2-difluoroethyl)-3-phenyl-1H-pyrazol-4-yl)-7-methoxyquinazolin-6-yl) nicotinamide] are 1.3 nM, 0.8 nM and 1.7 nM.
On the same counts, the results for `COc1cc2ncnc(-c3cn(C)nc3-c3ccccc3)c2nc1O[C@H](C)c1nccs1` [Example 32, (R)-2-(1-((7-methoxy-4-(1-methyl-3-phenyl-1H-pyrazol-4-yl)pyrido[3,2-d]pyrimidin-6-yl)oxy)ethyl)thiazole] are 1.1 nM, 0.8 nM and 1.2 nM.
`COc1cc2ncnc(-c3cn(C)nc3-c3ccccc3)c2cc1-c1cccc2cn(C)nc12` [Example 138, 7-methoxy-6-(2-methyl-2H-indazol-7-yl)-4-(1-methyl-3-phenyl-1H-pyrazol-4-yl)quinazoline]: the figures for the IC50 (at EGFR L858R; on EGFR (d746-750); in assay [1]) were 5.6 nM, 2.1 nM and 4.6 nM, respectively.

Values taken from patent US20250236608A1, “EGFR INHIBITORS” (Blueprint Medicines Corporation, priority 2022, published 2025).
